The NIST ThermoML archive (doi:10.1016/j.jct.2019.04.021)
Numbers after ± are expanded uncertainties.

Details: 298 K; 101.33 kPa; Crystal; X-ray diffraction

[O-2].[O-2].[O-2].[Pr+3].[Pr+3] [praseodymium oxide (Pr2O3)]
mass density: 7060.5 ± 7.2 kg/m3
